Test results as given in patent US8217045B2, “Organic compounds” (Novartis AG, priority 2007, dated 2012).
Changes are numbered by the printed parent chain.

Tests used:
[1] = biological target: T1, c-Abl (His-cAbl) (Homo sapiens, UniProt P00519); experiment: in vitro enzyme assay, wild-type Abl catalysed phosphorylation; assay type: biochemical; conditions: 16 nM His-cAbl, 10 μM ATP, 1 hour at 30° C.; read-out: IC50, inhibition of wild-type Abl catalysed phosphorylation
T1 construct: The His-tagged kinase domain of Abl is cloned and expressed; His tag; made in house; host or cells: baculovirus/Sf9
T1 sequence (P00519 242-493 limits assumed): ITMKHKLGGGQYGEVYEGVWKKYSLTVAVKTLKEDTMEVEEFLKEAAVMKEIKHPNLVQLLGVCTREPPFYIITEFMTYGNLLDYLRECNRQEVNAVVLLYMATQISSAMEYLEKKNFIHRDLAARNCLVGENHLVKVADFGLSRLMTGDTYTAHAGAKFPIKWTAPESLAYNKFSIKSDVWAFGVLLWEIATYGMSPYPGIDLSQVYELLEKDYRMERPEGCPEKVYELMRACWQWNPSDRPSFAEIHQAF
Experimental: (§1) Test for activity against wild-type and mutant Abl protein tyrosine kinase:
(§2) The test, an in vitro enzyme assay, is conducted as a filter binding assay as follows: The His-tagged kinase domain of Abl is cloned and expressed in the baculovirus/Sf9 system as described by Bhat et al., J. Biol. Chem. 1997; 272:16170-16175. A protein of 37 kD (Abl kinase) is purified by a two-step procedure over a Cobalt metal chelate column followed by an anion exchange column with a yield of 1-2 mg/L of Sf9 cells. The purity of the Abl kinase is >90% as judged by SDS-PAGE after Coomassie blue staining.
(§3) Based on the optimized assay conditions for the individual kinases a specific assay set-up was chosen. The assays were prepared and incubated on a liquid handling robot system using 384-well plates. To the assay plates containing 50 nL compound or control solutions, 4.5 μL of solution A consisting of the peptide substrate and ATP in assay buffer were added. The reactions were initiated by adding 4.5 μL of solution B consisting of the respective kinase in assay buffer. The reactions were incubated for 1 hour at 30° C. in a final reaction volume of 9.05 μL. Based on a generic assay buffer (50 mM HEPES pH7.5, 1 mM DTT, 0.02% Tween20, 0.02% BSA), following components were added depending on the chosen kinase: • c-Abl: 16 nM His-cAbl, 5 μM peptide substrate (FITC-Ahx-EAIYAAPFAKKK-CONH2), 10 mM MgCl2, 10 μM ATP • c-Abl-T315I: 2.4 nM His-cAbl-T315I, 5 μM peptide substrate (FITC-Ahx-EAIYAAPFAKKK-CONH2), 10 mM MgCl2, 10 μM ATP
(§4) After incubation, the kinase reactions were stopped by the addition of 16 μL of stop solution (100 mM HEPES, 5% DMSO, 0.1% Coating reagent, 10 mM EDTA, 0.015% Brij 35). Subsequently, the assay plates were transferred to a Caliper LabChip3000 reader and the unphosphorylated substrate and the phosphorylated product were separated and quantitated in a microfluidic chip.

[2] = biological target: Bcr-Abl (Homo sapiens, UniProt P00519); experiment: Bcr-Abl phosphorylation capture ELISA in 32D-Bcr-Abl cells; assay type: cell-based, murine; conditions: 90 min at 37° C., read-out: IC50, reduction of Bcr-Abl phosphorylation
Source text: 32D cl3 cells are obtained from the American Type Culture Collection (ATCC CRL11346) and Ba/F3 cells are obtained from the German Collection of Microorganisms and Cell Cultures (DSMZ, Braunschweig and DSMZ No. ACC 300) Palacios et al., Nature, 1984; 309:126 and Palacios et al., Cell, 1985:41:72.
Oncogene 1996; 12: 839-46; and Okuda K, Golub T R, Gilliland D G, Griffin J D. p210BCR-ABL, p190BCR-ABL, and TEL/ABL activate similar signal transduction pathways in hematopoietic cell lines. Oncogene 1996; 13:1147-52.)
The cells express the fusion Bcr-Abl protein with a constitutively active Abl kinase and proliferate growth factor independent. The cells are expanded in RPMI 1640 (AMIMED), 10% fetal calf serum (FCS), 2 mM glutamine (Gibco) (“complete medium”), and a working stock is prepared by freezing aliquots of 2×10^6 cells per vial in freezing medium (95% FCS, 5% DMSO (SIGMA)). After thawing, the cells are used during maximally 10-12 passages for the experiments. The antibody anti-Abl SH3 domain cat. #06-466 from Upstate Biotechnology is used for the ELISA. For detection of Bcr-Abl phosphorylation, the anti-phosphotyrosine antibody Ab PY20, labelled with alkaline phosphatase ([…]) from ZYMED (cat. #03-7722) is used. […]

[3] = biological target: T2, c-Abl-T315I (His-cAbl-T315I) (Homo sapiens, UniProt P00519, T315I); experiment: in vitro enzyme assay, T315I mutant Abl catalysed phosphorylation; assay type: biochemical; conditions: 2.4 nM His-cAbl-T315I, 10 μM ATP, 1 hour at 30° C.; read-out: IC50, inhibition of T315I mutant Abl catalysed phosphorylation
T2 construct: The His-tagged kinase domain of Abl is cloned and expressed; His tag; made in house; host or cells: baculovirus/Sf9
T2 sequence (P00519 242-493 T315I limits assumed): T1 sequence (P00519 242-493 limits assumed) with T74I
Experimental: as §1, §2, §3, §4

| Compound | IC50 [1] [nM] | melting point [°C] | other results |
| --- | --- | --- | --- |
| CC(=O)Nc1cc(Oc2ccc3c(C(=O)Nc4cc(-n5cnc(C)c5)cc(C(F)(F)F)c4)cccc3c2)ccn1 [Example 1, 6-[[2-(Acetylamino)-pyridin-4-yl]oxy]-naphthalene-1-carboxylic acid [3-(4-methyl-1H-imidazol-1-yl)-5-(trifluoromethylphenyl)]amide] | < 5 |  |  |
| Cc1cn(-c2cc(NC(=O)c3cccc4cc(Oc5ccnc(NC(=O)C6CC6)c5)ccc34)cc(C(F)(F)F)c2)cn1 [Example 2, 6-[[2-(Cyclopropylcarbonyl)amino-pyridin-4-yl]oxy]-naphthalene-1-carboxylic acid [3-(4-methyl-1H-imidazol-1-yl)-5-(trifluoromethylphenyl)]amide] |  | 242 to 244 | IC50 [2]: 21 to 179 nM |
| Cc1cn(-c2cc(NC(=O)c3cccc4cc(Oc5ccnc(NC(=O)C(C)(C)C)c5)ccc34)cc(C(F)(F)F)c2)cn1 [Example 3] |  | > 120 |  |
| Cc1cn(-c2cc(NC(=O)c3cccc4cc(Oc5ccnc(NC(=O)C(C)(C)O)c5)ccc34)cc(C(F)(F)F)c2)cn1 [Example 4, 6-[[2-(2-Hydroxy-2-methylpropylcarbonyl)amino-pyridin-4-yl]oxy]-naphthalene-1-carboxylic acid [3-(4-methyl-1H-imidazol-1-yl)-5-(trifluoromethylphenyl)]amide] |  | 248 to 251 |  |
| Cc1cn(-c2cc(NC(=O)c3cccc4cc(Oc5ccnc(NC(=O)N(C)C)c5)ccc34)cc(C(F)(F)F)c2)cn1 [Example 5] | < 5 | > 138 |  |
| Cc1cn(-c2cc(NC(=O)c3cccc4cc(Oc5ccnc(Nc6ccccn6)c5)ccc34)cc(C(F)(F)F)c2)cn1 [Example 6, 6-[[2-[(2-Pyridinyl)amino]-4-pyridinyl]oxy]-naphthalene-1-carboxylic acid [3-(4-methyl-1H-imidazol-1-yl)-5-(trifluoromethylphenyl)]amide] |  | 204 to 206 | IC50 [3]: 47 to 49 nM |
| CC(=O)Nc1cc(Oc2ccc3c(C(=O)Nc4ccc(CN5CCN(C)CC5)c(C(F)(F)F)c4)cccc3c2)ccn1 [Example 7, 6-[[2-(Acetylamino)-pyridin-4-yl]oxy]-naphthalene-1-carboxylic acid [4-[(4-methyl-1-piperazinyl)methyl]-3-trifluoromethyl-phenyl]amide] | < 5 | 112 to 114 |  |
| CN1CCN(Cc2ccc(NC(=O)c3cccc4cc(Oc5ccnc(NC(=O)C6CC6)c5)ccc34)cc2C(F)(F)F)CC1 [Example 8, 6-[[2-(Cyclopropylcarbonyl)amino-pyridin-4-yl]oxy]-naphthalene-1-carboxylic acid [4-[(4-methyl-1-piperazinyl)methyl]-3-trifluoromethyl-phenyl]amide] | < 5 |  |  |
| CN1C2CCCC1CN(Cc1ccc(NC(=O)c3cccc4cc(Oc5ccnc(NC(=O)C6CC6)c5)ccc34)cc1C(F)(F)F)C2 [Example 11] | < 5 |  |  |
| Cc1ncc(-c2cc(NC(=O)c3cccc4cc(Oc5ccnc(NC(=O)C6CC6)c5)ccc34)cc(C(F)(F)F)c2)[nH]1 [Example 15] |  |  | IC50 [3]: 36 to 57 nM |
| CC(=O)Nc1cc(Oc2ccc3c(C(=O)Nc4cc(-n5cnc(C)c5)cc(C(F)(F)F)c4)cccc3c2)ncn1 [Example 19, 6-[[6-(Acetylamino)-pyrimidin-4-yl]oxy]-naphthalene-1-carboxylic acid [3-(4-methyl-imidazol-1-yl)-5-trifluoromethyl-phenyl]-amide] | < 5 |  |  |
| Cc1cn(-c2cc(NC(=O)c3cccc4cc(Oc5cc(NC(=O)C6CC6)ncn5)ccc34)cc(C(F)(F)F)c2)cn1 [Example 20, 6-[[6-(Cyclopropanecarbonyl)amino-pyrimidin-4-yl]oxy]-naphthalene-1-carboxylic acid [3-(4-methyl-imidazol-1-yl)-5-trifluoromethyl-phenyl]-amide] |  | 216 to 220 |  |
| Cc1cn(-c2cc(NC(=O)c3cccc4cc(Oc5cc(N)ncn5)ccc34)cc(C(F)(F)F)c2)cn1 [Example 21, 6-[[6-Amino-pyrimidin-4-yl]oxy]-naphthalene-1-carboxylic acid [3-(4-methyl-imidazol-1-yl)-5-trifluoromethyl-phenyl]-amide] |  | > 148 |  |
| Cc1cn(-c2cc(NC(=O)c3cccc4cc(Oc5ccnc(Nc6nccs6)c5)ccc34)cc(C(F)(F)F)c2)cn1 [Example 22, 6-[[N-[2-(4-methyl-2-thiazolyl)amino]-pyridin-4-yl]oxy]-naphthalene-1-carboxylic acid [3-(4-methyl-1H-imidazol-1-yl)-5-(trifluoromethylphenyl)]amide] |  | 277 to 282 |  |
| Cc1cn(-c2cc(NC(=O)c3cccc4cc(Oc5ccnc(NC(=O)[C@@H]6CCCN6)c5)ccc34)cc(C(F)(F)F)c2)cn1 [Example 25, 6-[[2-[(2S)-2-Pyrrolidinecarbonyl]amino-pyridin-4-yl]oxy]-naphthalene-1-carboxylic acid [3-(4-methyl-1H-imidazol-1-yl)-5-(trifluoromethylphenyl)]amide] |  |  | IC50 [3]: 65 to 68 nM |
